How the values were obtained:
hESC-Chol [1] = assay: Expression of cholangiocyte markers in hESC-Chol after addition of NaBut; format: cell-based, human; conditions: addition of NaBut on hESC-Chol (1 μM, days 21 to 23)
Protocol: (§1) At days 10-12 of differentiation, hESC/hiPSC-hepatoblasts were harvested with cell dissociation buffer (0.1 mg/ml EDTA, 0.5 mg/ml BSA in PBS) and seeded onto 12-well collagen I-coated plates (BD Biosciences) with plating medium (William's E/Ham F12 1:1, 10% FBS (PAA Laboratories), 1 mg/ml fraction V fatty acid-free BSA (Sigma), 1 mM L-glutamine) for 4 hours. Cells were then incubated overnight with biliary differentiation medium (BDM) (William's E/Ham F12 1:1, 10^−5 M linoleic acid-Albumin (Sigma L9530), 5.10^−8 M 3,3′,5-Triiodo-L-thyronine (Sigma T2752), 0.2 IU Insulin, 6.10^−4 M Vitamin C (Boyer), […] (Sigma T5391), 1 mM sodium pyruvate (Gibco)). […]
Total RNA was purified with an RNAeasy kit (Qiagen). cDNAs were obtained by using QuantiTect kit (Qiagen 204341) or the High Capacity cDNA Reverse Transcription Kit (Applied Biosystems, Carlsbad, Calif.) according to the manufacturer's instructions. The level of gene expression was measured and analyzed by real-time PCR over 40 cycles using Taqman universal master mix II and Taqman gene expression assays (Applied Biosystems) using an ABI-7000 real-time PCR system and ABI 7000 software. The expression level of CFTR TGR5 (GPBAR-1), SCTR, GGT1, SOX9, AQP1 and JAG was determined in relation to RPL13A, which served as a housekeeping gene. […]

hESC-Chol [2] = assay: Cellular Ca2+ imaging: intracellular Ca2+ increase after hormonal stimulation; format: cell-based, human; conditions: hESC-Chol at day 23, Fura2-AM loaded
Protocol: At day 17, differentiating hESC-Chols were plated on glass coverslips coated with type I collagen and differentiated further into cholangiocyte-like cells as described above. At day 23 hESC-Chols were loaded with 3 μM Fura2-AM (Invitrogen, F1201) in BDM medium (37° C. and 5% CO2), for 45 minutes. Cells were then washed twice, and transferred into a perfusion chamber placed on the stage of a Zeiss inverted microscope (Axiovert 35). Intracellular calcium increases were measured after stimulation with somatostatin (Eumedica), ATP (Sigma), or Acetylcholine (Sigma). Calcium imaging was performed as described previously.^41 Fluorescence images were collected by a charge-coupled device camera (Princeton), digitized and integrated in real time by an image processor (Metafluor, Princeton).
To assess the functionality of our hESC-Chol, they analyzed their response to Adenosine triphosphate (ATP), acetylcholine and Somatostatin, known to induce Ca^2+ increase in biliary cells via P2Y1 receptors,^5 M3 muscarinic receptor (AChR M3),^25 Somatostatin receptor type 2 (SSTR2)^26 respectively, as well as type III Inositol 1,4,5-triphosphate (InsP3) receptor (InsP3R), an intracellular Ca^2+ channel, which stimulates release of Ca^2+ from intracellular stores into the cytosol.^27

[3] = tested on: hESC-derived differentiating cells; assay: Ki67 staining of differentiating cells after addition of IL-6; format: cell-based, human; conditions: after addition of IL-6 (10 ng/ml)
Protocol: as §1
Cells were fixed with 4% Paraformaldehyde for 15 minutes at room temperature and permeabilized with 0.5% Triton X-100 for 15 minutes, 3% BSA-PBS for 30 minutes at room temperature or with 0.2% saponin and 5% donkey serum for 45 minutes at room temperature. […] All the photographs were taken with a Leica HMR microscope (Leica Microsystems), inverted DMIRBE microscope (Leica) using a 20×/0.4 N Plan objective (leica) and a CoolSnapES N&B camera (Photometrics) driven by MetaVue software (Molecular devices), SP5 LEICA DMI 6000 CS Microscope (Leica, Germany) and treated with LAS AF 2.6.0 software, or ACT-1 Nikon software or Cellomics ArrayScan VTI HCS Reader.

HepaRG-Chol = conditions: VEGF-165 20 ng/ml for 2 days
Protocol: HepaRG-HB cultured in the reduced medium were treated for 2 days with IL-6 (10 ng/ml), then for 2 days with sodium taurocholate hydrate (10 nM) and then for 2 days with sodium taurocholate hydrate (10 nM) and sodium butyrate (1.8 μM) to prevent spontaneous differentiation along the hepatocytic lineage. Independent culture experiments were performed 4 times. For proliferation assay, VEGF-165 (20 ng/ml) (Promokine, C-64420) was added on HepaRG-Chol culture for 2 days. Immunostaining pictures were analyzed and quantification was assessed with Cell Health Profiling BioApplication from Cellomics software.

hepatic progenitors = assay: Effect of periportal mesenchymal factors on commitment of hepatic progenitors toward cholangiocytes; format: cell-based, human; conditions: addition to hepatic progenitors; data not shown
HepaRG-HB = assay: Effect of GH on HepaRG-hepatoblasts; format: cell-based, human; conditions: addition of GH; data not shown
Protocol: Independent culture experiments were performed 4 times.

CCCC(=O)[O-].[Na+] [NaBut, Sodium Butyrate]
expression of cholangiocyte markers (hESC-Chol [1]): did not significantly change

Nc1ncnc2c1ncn2[C@@H]1O[C@H](COP(=O)(O)OP(=O)(O)OP(=O)(O)O)[C@@H](O)[C@H]1O [ATP, Adenosine triphosphate]
percentage of responsive cells (Ca2+ increase) (hESC-Chol [2]): 70%±5

IL-6: polypeptide also known as B cell-stimulating factor 2; Uniprot P05231
Ki67-positive cycling cells [3]: up to 68%

VEGF
increase in the number of cells in G2/M phases (HepaRG-Chol): two-fold increase
cell commitment toward cholangiocytes (hepatic progenitors): did not induce significant cell commitment

CC(=O)OCC[N+](C)(C)C [acetylcholine]
percentage of responsive cells (Ca2+ increase) (hESC-Chol [2]): 40%±4

TGFβ1: Transforming growth factor beta 1
cell commitment toward cholangiocytes (hepatic progenitors): did not induce significant cell commitment

GH: peptide hormone that stimulates growth and metabolism; Uniprot P01241
proliferation and differentiation of HepaRG-hepatoblasts (HepaRG-HB): did not improve

B1: BMP4: Bone morphogenetic protein 4; Uniprot P12644 (protein, UniProt P12644 293-408, looked up)
Bone morphogenetic protein 4: SPKHHSQRARKKNKNCRRHSLYVDFSDVGWNDWIVAPPGYQAFYCHGDCPFPLADHLNSTNHAIVQTLVNSVNSSIPKACCVPTELSAISMLYLDEYDKVVLKNYQEMVVEGCGCR
cell commitment toward cholangiocytes (hepatic progenitors): did not induce significant cell commitment
